Experimental data from PMC7895991, “Calculating metalation in cells reveals CobW acquires Co^II for vitamin B12 biosynthesis while related proteins prefer Zn^II” (Nature Communications, 2021).

Experiments:
CobW [1] = target: T1, CobW (Rhodobacter capsulatus, UniProt D5AV10); test: Co(II) titration UV-vis, nucleotide-induced metal site at […] nm; format: binding; conditions: 10 mM HEPES pH 7.0, 100 mM NaCl, 400 mM KCl, anaerobic, indirect read-out, no nucleotide constant
T1 construct: full length, untagged (natural His-rich region), initiator Met cleaved; E. coli BL21(DE3) pLysS; six cysteines
T1 sequence (D5AV10 2-348): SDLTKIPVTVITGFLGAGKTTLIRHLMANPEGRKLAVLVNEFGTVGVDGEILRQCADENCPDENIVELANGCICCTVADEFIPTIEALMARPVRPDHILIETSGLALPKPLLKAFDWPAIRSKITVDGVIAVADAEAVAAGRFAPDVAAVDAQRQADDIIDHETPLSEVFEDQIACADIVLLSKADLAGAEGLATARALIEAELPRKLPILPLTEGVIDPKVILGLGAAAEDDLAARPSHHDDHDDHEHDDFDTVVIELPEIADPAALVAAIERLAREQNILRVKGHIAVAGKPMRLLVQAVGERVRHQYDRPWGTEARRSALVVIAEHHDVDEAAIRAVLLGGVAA

CobW [2] = target: T1, CobW; test: Co(II) titration UV-vis at […] nm and gel filtration/ICP-MS; format: binding; conditions: 10 mM HEPES pH 7.0, 100 mM NaCl, 400 mM KCl, anaerobic, with or without Mg(II) 2.7 mM, indirect read-out, no nucleotide constant
CobW [3] = target: T1, CobW; test: GTP hydrolysis by anion-exchange chromatography, […] nm; format: biochemical; conditions: 20 uM CobW, 200 uM GTP, 2.7 mM Mg(II), 18 uM Co(II), HEPES pH 7.0, anaerobic; slow turnover

For `Nc1nc2c(ncn2[C@@H]2O[C@H](COP(=O)(O)OP(=O)(O)O)[C@@H](O)[C@H]2O)c(=O)[nH]1` [GDP], which “Co(II) titration UV-vis, nucleotide-induced metal site at 339 nm” value (CobW [1]; Mg(II) 2.7 mM) is on record?
Its value is “Mg^IIGDP-CobW, despite displaying identical absorbance features indicating the persistence of the cysteine-rich tetrahedral site”.

Which “Co(II) titration UV-vis at 339 nm and gel filtration/ICP-MS” value (CobW [2]) does the source give for `Nc1nc2c(ncn2[C@@H]2O[C@H](COP(=O)(O)OP(=O)(O)NP(=O)(O)O)[C@@H](O)[C@H]2O)c(=O)[nH]1` [GMPPNP] here?
Its value is “binding of guanine nucleotides to CobW promotes tight coordination of two metal ions”.

Which “Co(II) titration UV-vis, nucleotide-induced metal site at 339 nm” value (CobW [1]; Mg(II) 2.7 mM) does the source give for `Nc1nc2c(ncn2[C@@H]2O[C@H](COP(=O)(O)OP(=O)(O)OP(=O)(O)O)[C@@H](O)[C@H]2O)c(=O)[nH]1` [GTP] here?
The value was “binding of Mg^II and guanine nucleotides preassembles one distinct Co^II site in CobW”.

And the “GTP hydrolysis by anion-exchange chromatography, 254 nm” value (CobW [3])?
Its value is “CobW-catalysed GTP hydrolysis is sufficiently slow such that nucleotides remain predominantly unhydrolysed”.

For `Nc1nc2c(ncn2[C@@H]2O[C@H](COP(=O)(O)OP(=O)(O)OP(O)(O)=S)[C@@H](O)[C@H]2O)c(=O)[nH]1` [GTPγS], which “Co(II) titration UV-vis, nucleotide-induced metal site at 339 nm” value (CobW [1]; with or without Mg(II) 2.7 mM) is on record?
The value was “Equivalent experiments performed with GTP and an alternate stable analogue, GTPγS, generated indistinguishable spectra”.
